Laboratory results from US9486507B2, “Pro-coagulant compounds and methods of use thereof” (priority 2011, dated 2016).

Experiments:
FIXa [1] = biological target: T1, FIXa (Homo sapiens, UniProt P00740); test: FXa generation assay with compound 3, phospholipid and Gla-domain dependency; assay type: biochemical; conditions: compound 3 1 μM
Excerpt: Formation of FXa was monitored using a chromogenic substrate as described in the FXa generation assay directly above (see b.1.).

[2] = tested on: 10% FVIII-deficient human plasma; test: Modified activated partial thromboplastin time (aPTT*) assay; assay type: biochemical
Protocol: For the activated Partial Thromboplastin Time (aPTT) assay peptides to be tested were first diluted in 10% FVIII-deficient human plasma. For the aPTT* the peptides were diluted in 10% FVIII-deficient human plasma that contained traces of hFIXa (anywhere between 0 and 8.8 nM hFIXa depending on the assay) in Tris/NaCl/BSA buffer. The peptides were incubated for 10 minutes at room temperature and then assayed for clotting on a Sysmex instrument that recorded the clotting time observed for each sample. The times were compared to those of a standard curve derived from standards with known FVIII activity (U/mL) in order to determine the clotting outcome.

FIXa [3] = biological target: T1, FIXa; test: Km/Kcat of FIXa for the substrate FX (FXa generation assay); assay type: biochemical; parameters: purchased Haematologic Technologies; conditions: compound 1 3 μM, compounds 3, 4, 5 1 μM, compound C 10 μM; for Km / kcat: hFIXa 10 nM, FX 10-1000 nM, PL, CaCl2; for Δ kcat: relative to buffer (1.0)
Protocol: To determine the Km and Kcat of FIXa or FVIIa for the substrate FX, the FXa generation assay described above was used with the following modifications. […] Reactions were set up with varying concentrations of FX ranging between 400 and 0.8 nM and the rates of FXa generation were determined for each peptide at the different FX concentrations tested as described above. […] The catalytic constant (Kcat) was calculated by normalizing the Vmax to the enzyme concentration.
FIXa was used at 10 nM, and FX was used at 10-1000 nM. The assay was performed in the presence of phospholipids (PL) and calcium chloride.

FIXa [4] = biological target: T1, FIXa; test: Incubation with FIXa in FXa generation assay buffer, LC-MS; assay type: biochemical; conditions: compound 3 100 μM; FIXa 0, 10 nM, 1 μM; with or without BSA; 3 hours
Protocol: The mixtures were then analyzed by LC-MS.

FIXa [5] = biological target: T1, FIXa; test: FXa generation assay with human FIXa; assay type: biochemical; parameters: purchased Haematologic Technologies; conditions: for Vmax: class symbols
[6] = tested on: FVIII deficient human plasma; test: Rotational thromboelastometry (ROTEM) in FVIII-deficient human plasma; assay type: biochemical; conditions: for Clotting time, sec (avg.) / α-angle, degrees (avg.): human HemA plasma, lyophilized platelets, 10 fM lipTF
mouse FIXa (mFIXa) = mouse FIXa (mFIXa) (Mus musculus, UniProt P16294); test: FXa generation assay with mouse FIXa; assay type: biochemical; conditions: mFIXa compared to hFIXa
Excerpt: The data confirms that the peptide was selected for binding to hFIXa.

[7] = tested on: FVIII deficient human plasma; test: Thrombin generation assay (TGA) in FVIII-deficient plasma; assay type: biochemical; parameters: key to Thrombin Above Baseline (nM): 1-10 nM (1) or 1-29 nM (2) (+); 11-20 nM (1) or 30-59 nM (2) (++); 21-30 nM (1) or 60-90 nM (2) (+++); >30 nM (1) or >90 nM (2) (++++); At or about baseline (−); conditions: HRF FVIII-deficient plasma (1)
[8] = biological target: T2, recombinant human factor IXa (hFIXa) (Homo sapiens, UniProt P00740); test: Hydrogen/deuterium exchange mass spectrometry (H/DX-MS) of hFIXa; assay type: binding; conditions: hFIXa 1 μM with vs without compound 4 12 μM
T2 construct: purchased Hematologic Technologies
Protocol: Hydrogen/deuterium exchange mass spectrometry (H/DX-MS) was utilized to study the higher-order structural analysis of recombinant human factor IXa (hFIXa) in combination with and without compound 4. The general method can be found in the following references: Engen and Smith (2001) Anal. Chem. 73, 256A-265A.; Wales and Engen (2006) Mass Spectrum. Rev. 25, 158-170.
FIXa samples were equilibrated at ambient temperature (20±1° C.) for 1 hour before labeling with deuterated buffer (reaction buffers described above). The samples were then diluted 1:15 with deuterated buffer and incubated, allowing hydrogen exchange to occur for various amounts of time (10 seconds, 1, 10, 60, and 240 minutes), before the reaction was quenched with a 1:1 dilution of 200 mM citrate, 8 M guanidinium HCl, and 0.5 M TCEP, pH 2.33. Quenched samples were then incubated for 20 seconds before being further diluted 1:1 with 0.1% formic acid and immediately injected into the LC-MS system for analysis.
Approximately 7 μg of exchanged/quenched FIXa was injected onto an immobilized pepsin column where the digestion and peptide trapping were performed for 3 minutes with a flow rate of 0.1 mL/min in 0.1% formic acid at 10° C. […] Mass spectra were acquired and peptic peptides were identified using a combination of exact mass and MS, aided by Waters Identity software (Silva J C et al., 2006. Absolute quantification of proteins by LCMSE: a virtue of parallel MS acquisition. Mol Cell Proteomics, 5(1): p144). […] The amount of deuterium in each peptide was determined by subtracting the mass of the undeuterated peptide from the mass of the deuterated peptide, incubated at various HDX time points (which were uncorrected for any back exchange). […]
The difference in deuterium exchange between FIXa and FIXa with compound 4 was determined by subtracting the mass of each FIXa peptide from the mass of the corresponding FIXa with compound 4. […] The sum of these differences, across all time points, was calculated. […]

[9] = tested on: purified recombinant human coagulation factors; test: Thrombin generation assay using purified hemostatic components; assay type: biochemical; conditions: compounds 1 μM; FVIII 0.1 or 1 IU/mL (FIG. 5)
[10] = biological target: T3, FXa or the prothrombinase complex (Homo sapiens, UniProt P00742); test: FXa / prothrombinase activity in purified thrombin generation assay; assay type: biochemical; conditions: 1 μM; FXa 0.05 ug/mL, with or without FV
T3 construct: Under these conditions FIXa cleaves the zymogen FX into the active form FXa
Protocol: In another experiment it was determined whether or not the compounds of the present disclosure directly enhance the activity of FXa or the prothrombinase complex.

thrombin = thrombin (Homo sapiens, UniProt P00734); conditions: thrombin 1.4 nM, conjugate A 10 μM, PBS, 37° C.
Protocol: Conjugate A (21 μL, 0.24 mM) in water was added to 476.5 μL PBS. […] The mixture was incubated at 37° C. Aliquots (60 μL) at various time points were quenched with 1 μL of hirudin (10 μM) and injected into the HPLC (C-18 column, CH3CN/H2O, 0 to 70% over 12 minutes, 60° C. 0.5 mL/min, ? =280 nm).

[11] = aPTT*, D-amino acid scan of compound 1, listed as WT
[12] = FXa generation assay, 10 nM hFIXa, 100 nM hFX

In the case of RRAPGKLQCLASYCWLFWTGIA [Compound 3], the “Percentage of control (FXa generation)” value (FIXa [1]; +PL) is reported as 100%, the “Percentage of control (FXa generation)” value (FIXa [1]; +PL +anti-FIX IgG (Gla)) is reported as 58.0% and the “Percentage of control (FXa generation)” value (FIXa [1]; −PL) is reported as 90%. The “Clotting time” value ([2]; aPTT*, exogenous hFIXa 0.5 nM) was 115.2 s, the “Clotting time, sec” value ([2]; aPTT*, exogenous hFIXa 0.5 nM) was 115.6; sec and the “Clotting time” value ([2]; aPTT*, exogenous hFIXa 8.8 nM) was 41.9 s. For the same substance, the “Clotting time, sec” value ([2]; aPTT*, exogenous hFIXa 8.8 nM) was 45.4; sec, the Km (FIXa [3]) was 0.016 ± 0.0035 µM and the kcat (FIXa [3]) was 0.000295 s⁻¹. For the same substance, the Δ kcat (FIXa [3]) was 197, the “substrate for FIXa (LC-MS)” value (FIXa [4]) was “not a substrate for FIXa” and the Vmax (FIXa [5]; FXa generation assay using human FIXa) was “(++++) ((++++)>3)”. For the same substance, the “Vmax (mOD/min min)” value (FIXa [5]; PL: No) was 2.77 mOD/min min, the “Vmax (mOD/min min)” value (FIXa [5]; PL: Yes) was 3.90 mOD/min min and the “clotting time and α-angle with neutralizing anti-FVIII antibody” value ([6]; 10 uM, polyclonal sheep IgG against human FVIII, 1:100) was “independent of residual FVIII”. For the same substance, the “clotting time compared with FVIII (100% FVIII = 1 IU/mL)” value ([6]; compound 3 at 5 μM, faster than) was > 100 % FVIII, the “α-angle corresponding to FVIII” value ([6]; compound 3 at 10 μM) was “about 20 % FVIII” and the “Clotting time, sec (avg.)” value ([6]; 0.625 μM) was 792 s. The “α-angle, degrees (avg.)” value ([6]; 0.625 μM) was 29 degrees, the “Clotting time, sec (avg.)” value ([6]; 2.5 μM) was 452 s and the “α-angle, degrees (avg.)” value ([6]; 2.5 μM) was 33 degrees. For the same substance, the “Clotting time, sec (avg.)” value ([6]; 5 μM) was 329 s, the “α-angle, degrees (avg.)” value ([6]; 5 μM) was 38 degrees and the “Clotting time, sec (avg.)” value ([6]; 10 μM) was 205 s. For the same substance, the “α-angle, degrees (avg.)” value ([6]; 10 μM) was 51 degrees.
KLTCLASYCWLF [Compound 1] was tested, and the “Clotting time” value ([2]; aPTT* with FIXa, 5 μM) was 47.9 s, the “Clotting time, sec” value ([2]; aPTT* with FIXa, 5 μM) was 47.3; sec and the “Clotting time” value ([2]; aPTT* with FIXa, 10 μM) was 43.3 s. For the same substance, the “Clotting time, sec” value ([2]; aPTT* with FIXa, 10 μM) was 44.2; sec, the “Clotting time” value ([2]; aPTT* with FIXa, 20 μM) was 43.8 s and the “Clotting time, sec” value ([2]; aPTT* with FIXa, 20 μM) was 43.5; sec. The “Clotting time” value [2, 11] was 47.8 s, the “Clotting time, sec” value [2, 11] was 47.9; sec and the “Clotting time” value ([2]; aPTT*, FIXa 1 nM) was 107.4 s. For the same substance, the “Clotting time, sec” value ([2]; aPTT*, FIXa 1 nM) was 105.8; sec, the “Clotting time” value ([2]; aPTT*, FIXa 2 nM) was 82.8 s and the “Clotting time, sec” value ([2]; aPTT*, FIXa 2 nM) was 84.4; sec. The “Clotting time” value ([2]; aPTT*, FIXa 4 nM) was 50.6 s, the “Clotting time, sec” value ([2]; aPTT*, FIXa 4 nM) was 50.9; sec and the “Clotting time” value ([2]; aPTT*, FIXa 8 nM) was 40.6 s. The “Clotting time, sec” value ([2]; aPTT*, FIXa 8 nM) was 40.1; sec, the Km (FIXa [3]) was 0.024 ± 0.0048 µM and the kcat (FIXa [3]) was 0.00024 s⁻¹. For the same substance, the Δ kcat (FIXa [3]) was 160, the Vmax (mouse FIXa (mFIXa)) was “greatly reduced” and the Vmax (FIXa [5]; [12]) was “(+++) ((+++)>2)”. For the same substance, the “Vmax (mOD/min min)” value (FIXa [5]; PL: No) was 2.60 mOD/min min, the “Vmax (mOD/min min)” value (FIXa [5]; PL: Yes) was 3.98 mOD/min min and the “Thrombin Above Baseline (nM)” value ([7]; 2.5 μM) was “−”. For the same substance, the “Thrombin Above Baseline (nM)” value ([7]; 5 μM) was “−”, the “Thrombin Above Baseline (nM)” value ([7]; 10 μM) was “−” and the “Thrombin Above Baseline (nM)” value ([7]; 20 μM) was “−”.
For RRAPGKLTCLASYCWLFWTGIA [Compound 4], the “FIXa peptide with most important significant difference in H/D exchange” value [8] was “heavy chain peptide 177-185”, the “difference index DI(1)” value [8] was 2 and the “difference index DI(2)” value [8] was 0. For the same substance, the thrombin generation [9] was “induce thrombin generation”, the Km (FIXa [3]) was 0.011 ± 0.0027 µM and the kcat (FIXa [3]) was 0.000285 s⁻¹. For the same substance, the Δ kcat (FIXa [3]) was 190, the Vmax (FIXa [5]; [12]) was “(+++) ((+++)>2)” and the “catalytic activity of FXa or the prothrombinase complex” value [10] was “did not substantially increase the catalytic activity of FXa or the prothrombinase complex”.
In the case of “Cys(Acm)-Gly-Gly-Gly-Gly-Dphe-Pip-Arg-PABC-rRAPGKLTCLASYCWLFWTGIA-NH2 (Disulfide) [conjugate A]”, the “incubation time to full cleavage by thrombin” value (thrombin) is reported as “about 60 min”.
